Source: paper PMC3692405, “Disease-associated mutations in CNGB3 promote cytotoxicity in photoreceptor-derived cells” (Molecular Vision, 2013)

Key:
[1] = system: channel-transfected 661W cells; assay: LDH-release cytotoxicity assay, channel-transfected cells; type: cell-based, mouse; conditions: CPT-cAMP alone, 0.1 to 10 µM; data not shown
Description: The mouse photoreceptor 661W cell line used in this study was generously provided by Dr. Al-Ubaidi (University of Oklahoma Health Sciences Center, Oklahoma City, OK). The 661W cells were routinely maintained in Dulbecco’s modified Eagle’s medium (Gibco, Carlsbad, CA), supplemented with 10% fetal bovine serum (Gemini Bioproducts, Sacramento, CA) and 1% penicillin/streptomycin (Gibco), at 37 °C in a humidified incubator with 5% CO2; cells were subcultured every 3–5 days. The 661W cells were transfected with pOPRSVI plasmids encoding human cone CNG channel subunits using Lipofectamine™ 2000 and OptiMEM (Life Technologies, Carlsbad, CA) according to the manufacturer’s protocol for cells in suspension. […]
For most experiments, the LDH Cytotoxicity Detection Kit (Roche Applied Science) was used according to the manufacturer’s protocol (see also [37]). […] Following treatment, half of the culture medium was transferred to another 96-well plate and the LDH released into the culture medium was measured to assess the number of damaged/dead cells. Cells in the original plate were then lysed and the total amount of cellular LDH was assessed. The percentage cytotoxicity was then calculated from the ratio of LDH concentration in the medium/cells, and was normalized to the percentage cytotoxicity in untreated cells transfected with control pOPRSVI plasmid only.

[2] = system: 661W cells expressing CNG channels with the F525N mutation; assay: LIVE/DEAD Viability/Cytotoxicity Kit staining, cells expressing F525N; type: cell-based, mouse; conditions: 0.1 µM CPT-cGMP, 24 h; compared to WT-expressing or untreated F525N-expressing cells
Description: The viability of 661W cells transfected with WT or mutant CNG channels was also assessed using the LIVE⁄DEAD® Viability⁄Cytotoxicity Kit (Life Technologies) according to the manufacturer’s protocol. Briefly, cells were transfected under the conditions described above and plated into 4-well multi-chamber Lab-Tek glass slides (Nalge Nunc International, Rochester, NY). At the end of cyclic nucleotide treatment, cells were washed with PBS three times and stained with 2 μM calcein AM and 4 μM ethidium homodimer-1 solution at room temperature for 30 min. Fluorescence microscopy was then performed to visualize the live and dead cells. Imaging of cells was performed at the Washington State University Franceschi Microscopy and Imaging Center. Images were obtained using a 10× objective on an Axiovert 200M inverted microscope equipped with a Zeiss LSM 510 confocal laser-scanning system and a krypton-argon laser. Fluorescence was measured using an excitation wavelength of 488 nm, and a 522 DF 32 emission filter for green fluorescence and 635 DF 32 emission filter for red fluorescence.

SMILES | effect on relative cytotoxicity [1] | damaged/dead and intact/viable cells (calcein AM / ethidium homodimer-1 fluorescence) [2]
Nc1ncnc2c1nc(Sc1ccc(Cl)cc1)n2[C@@H]1O[C@@H]2COP(=O)(O)O[C@H]2[C@H]1O [CPT-cAMP, CPT-adenosine 3′,5′-cyclic monophosphate] | no significant increase in relative cytotoxicity | –
Nc1nc2c(nc(Sc3ccc(Cl)cc3)n2[C@@H]2O[C@@H]3COP(=O)(O)O[C@H]3[C@H]2O)c(=O)[nH]1 [CPT-cGMP, 8-(4-chlorophenylthio) guanosine 3′,5′-cyclic monophosphate] | – | more damaged/dead cells (red fluorescence) and less intact/viable cells
